“Also recorded” adds a separate entry of the source.
System: OT-1 transgenic splenocytes
Assay: In vitro stimulation of OT-1 splenocytes with peptide antigen in the presence of TLR agonists, surface markers by flow cytometry
Type: cell-based, mice
Design: key to 4-1BB / PD-1 / LAG3 / CD160 / CD244.2 / BTLA / VISTA: “+” means increase; “−” means decrease; “=” means no change; “=/+” or “=/−” means the change is there but not significant; “=/+” or “=/−” means the change is there but not significant
Details: for 4-1BB / BTLA / CD160 / CD244.2 / LAG3 / PD-1 / VISTA: OT-1 splenocytes, high affinity antigen plus TLR agonist, versus antigen alone; for T cell activation measured by 4-1BB / PD-1 expression on activated T cells / levels of tested checkpoint markers (BTLA, VISTA, CD160, CD244.2): in words; for T cell activation measured by 4-1BB: SIINFEKL plus TLR agonist; for PD-1 expression on activated T cells: SIINFEKL plus TLR agonist versus antigen alone, up to 4 days; for levels of tested checkpoint markers (BTLA, VISTA, CD160, CD244.2): high affinity antigen plus TLR agonist versus no TLR agonist
Procedure: T cell activation was measured by the levels of marker 4-1BB (a/k/a CD137, a member of the TNF receptor superfamily). The level of PD-1 expression was also assessed in these cells (FIG. 1B).
There was no difference in LAG3 expression between the control cells and cells treated with any of the assayed TLR agonists.
OT-1 transgenic splenocytes were treated with high affinity antigen in combination with Pam3CSK4 (TLR1 and 2 agonist), Gardiquimod (TLR7 agonist) or no TLR agonist and the levels of different checkpoint markers or T cell stimulation (measured by 4-1BB, FIG. 5) were assayed. The checkpoint markers BTLA (FIG. 6), VISTA (FIG. 7), CD160 (FIG. 8) and CD244.2 (FIG. 9) were assayed.
TLR stimulation at the time of T-cell activation in vitro affects expression of PD-1. Given that CpG-rich DNA is a TLR9 agonist and Lm is a TLR2 agonist, we questioned whether TLR stimulation with different ligands could similarly affect expression of different T-cell checkpoint inhibitors. […] OT-1 splenocytes were stimulated in vitro with peptides of different affinity for MHC class I (high-affinity SIINFEKL peptide (SEQ ID NO:1, OVA), moderate-affinity SIINTEKL peptide (SEQ ID NO:2, FT), or low-affinity SIINFEKP peptide (SEQ ID NO:7, LP)), alone or in the presence of different TLR ligands (TLR 1/2 (Pam3CSK4), TLR 3 (Poly I:C), TLR 4 (MPLAs), TLR 7 (Gardiquimod), TLR 7/8 (R848), or TLR 9 (ODN1826)). […] Similarly, LAG-3 expression increased by day 3, but was not affected by the presence of different TLR ligands. […] This reduction in PD-1 expression was observed most with the high-affinity SIINFEKL (SEQ ID NO:1) epitope, but also observed following activation with lower affinity epitopes. Given these findings, we evaluated expression of multiple other T-cell checkpoint molecules following T-cell activation in the presence of TLR ligands. […] Cytotoxic T-lymphocyte-associated protein 4 (CTLA-4) expression, however, was increased in the presence of TLR1/2 agonist. Similar results were found activating OT-1 cells with the lower affinity FT (SIINTEKL peptide (SEQ ID NO:2)), LP (SIINFEKP peptide (SEQ ID NO:7), or LY (SIINFEKY, SEQ ID NO:8) epitopes (FIG. 19).
In vitro T-cell stimulation: Spleens were collected from OT-1 mice, processed through a mesh screen, and splenocytes were isolated by centrifugation after red blood cell osmotic lysis with ammonium chloride/[…] lysis buffer (0.15 M NH4Cl, 10 mM KHCO3, 0.1 mM EDTA). Splenocytes were cultured at 2×10^6/mL in RPMI 1640 medium supplemented with L-glutamine, 10% fetal calf serum (FCS), 200 U/mL penicillin/streptomycin, 1% sodium pyruvate, 1% HEPES, 50 μM β-MeOH, and 2 μg/mL of the designated peptide. TLR agonists were all purchased from InvivoGen (San Diego, CA) and added one hour before peptides at the following optimal concentrations based on preliminary studies and previously reported results: 300 ng/ml Pam3CSK4, 10 μg/mL Poly(I:C) HMW, 10 μg/ml MPLAs, 3 μg/ml Gardiquimod, 10 μg/ml R848, 5 μM ODN 1826. At the time points indicated, cells were stained, fixed for 15 min at 4° C. in cytofix (BD Biosciences (BD), San Jose, CA; 554655), and frozen in FCS+10% DMSO. After all time points were collected, cells from all times were thawed, rinsed and resuspended in PBS+3% FCS+1 mM EDTA and analyzed by flow cytometry. Cells were stained for 30 min at 4° C. in a 1:4 dilution of brilliant stain buffer (BD 563794) in PBS+3% FCS+1 mM EDTA. In order to assess co-stimulation, blocking antibodies for CD80 (0.6 μg/mL), CD86 (0.25 μg/mL) or OX40L (0.6 μg/mL) were added 1 hour prior to antigen.

Compound | 4-1BB | BTLA | CD160 | CD244.2 | LAG3 | PD-1 | VISTA | T cell activation measured by 4-1BB | PD-1 expression on activated T cells | levels of tested checkpoint markers (BTLA, VISTA, CD160, CD244.2) | PD-1 expression on activated T cells (listed as TLR4) | PD-1 expression on activated T cells (listed as TLR3) | CTLA-4 expression (OT-1 T cells activated with SIINFEKL in the presence of TLR ligand)
CCNCc1nc2c(N)nc3ccccc3c2n1CC(C)(C)O [Gardiquimod] | = | =/− | − | =/− | = | − | = | activated | expressed low levels of PD-1; also recorded: significantly reduced | did not affect |  |  | 
Monophosphoryl Lipid A [MPLAs] | = |  |  |  | = | = |  |  | did not significantly reduce |  | did not lead to PD-1 downregulation |  | 
Poly(I:C) [PolyI:C] | = |  |  |  | =/+ | =/− |  |  | did not significantly reduce |  |  | did not lead to decreased PD-1 expression | 
Pam3CSK4 | = | =/− | − | = | = | − | − | activated | expressed low levels of PD-1; also recorded: significantly reduced | did not affect |  |  | increased
